# Measurements: patent US6989270B1, “Using polyamide nucleic acid oligomers to engender a biological response” (Mayo Foundation for Medical Education and Research, priority 1997, dated 2006)
# Key:
# mu-1 receptor (MU1R) = test: Tail flick test of MOR-mediated anti-nociception in PNA-treated rats; format: in vivo, rat
# Description: The injection of MOR into rats produces a potent anti-nociceptive response. This response is mediated by specific MOR receptors and is inhibited by naloxone. A very sensitive and reliable tail flick test was devised and used to measure the anti-nociceptive effects of MOR (D'Amour F. E. and Smith D. L, J. Pharm. Exp. Therap. 72:74-79 (1941)).
# MU1R-PNA, NTR1-PNA, and ACSF treated as well as untreated rats were analyzed using the MOR-specific tail flick test. One day after the last treatment, each rat was analyzed as follows. Thirty minutes prior to testing, a pre-drug latency measurement was made by placing the tail of the restrained rat in oil maintained at a temperature of 60° C. and recording the time elapsed before the rat flicked its tail. After making this measurement, an appropriate dose of MOR (5 mg/kg of body weight) at a volume of about 200 μl was injected i.p. Thirty minutes after administering MOR, the restrained rat's tail was again placed in the oil maintained at 60° C. and the latency between the time the tail was placed in the oil and the time the rat flicked its tail was measured. […] Tail flick tests were scored as the percent of MPE and calculated using the following equation: % MPE=[(post-drug latency−pre-drug latency)/(cut-off−pre-drug latency)]×100; where the cut-off is 12 seconds. […] This average for untreated control rats was used to set the baseline A MPE value to 100. All test situations were compared to this baseline response value derived from MOR responsive untreated controls. To test the significance, data were analyzed using the Student's t-test with p<0.05 being considered significant.
# (§1) AS-NTR1-PNA, mismatch-AS-NTR1-PNA, and MU1R-PNA were injected intraperitoneally (10 mg/kg) independently, into separate groups of male Sprague-Dawley rats (Harlan, Prattville, Ala.). The sense-NTR1-PNA oligomer, however, was microinjected directly into the periaqueductal gray (PAG; 5 μg), the major area in the brain involved with perception of pain (nociception). […] Thirty minutes after receiving NT, animals were scored for anti-nociception (hot plate at 52° C.) and hypothermia (rectal probe). Again, anti-nociception scores were calculated as percent of maximum possible effect (% MPE) with the following equation: % MPE=[(post-drug latency time minus pre-drug latency time)/(cut-off time minus pre-drug latency time)]×100; where the cut-off time (i.e., the time when the animal was removed from the device) was 30 seconds for a hot plate test and 12 seconds for a tail flick test. Statistical analysis was done using the rank sum test.
# [1] = system: neurotensin receptor-1 (NTR1); test: NT-induced hypothermia (rectal body temperature) in PNA-treated rats; format: in vivo, rat; details: for body temperature change in response to NT: NT 18 nmol 24 hours later
# Description: (§2) NTR1-PNA, MU1R-PNA, and ACSF treated as well as untreated rats were analyzed using the hot plate test for NT. One day after the last treatment, each rat was analyzed as follows. Fifteen minutes prior to testing, a pre-drug latency measurement was made by placing the rat on a hot plate maintained at a temperature of 52±0.15° C. and recording the time elapsed before the rat licked either of its hindpaws. In addition, the temperature of the rat was taken using a thermister probe inserted 3 cm in the rectum to determine the pre-drug body temperature (BT). After making these measurement, an appropriate dose of NT (18 nmol) at a volume of about 0.5 ul was administered into the PAG as described above. Thirty minutes after administering NT, the rat was again placed on a hot plate maintained at a temperature of 52±0.15° C. and the latency between the time the rat was placed on the surface and the time it licked either of its hindpaws was measured. […] Hot plate tests were scored as the percent of maximum possible effect (% MPE) and calculated using the following equation: % MPE=[(post-drug latency−pre-drug latency)/(cut-off−pre-drug latency)]×100; where the cut-off is 30 seconds. […] This average for untreated control rats was used to set the baseline MPE value to 100. Immediately after the 30 second hot plate test, BT was taken to measure NT-induced hypothermia using a thermister probe inserted 3 cm in the rectum. […] All test situations were compared to these baseline values derived from NT responsive untreated controls.
# as §1
# [2] = system: neurotensin receptor-1 (NTR1); test: Hot plate test of NT-mediated anti-nociception in PNA-treated rats; format: in vivo, rat
# Description: Under an Institutional Animal Care and Use Committee approved protocol and under sterile conditions male Sprague-Dawley rats (180-200 g) were stereotaxically implanted with stainless steel guide cannulae (26 gauge) into the PAG under sodium pentobarbital anesthesia (50 mg/kg, i.p.) as described in detail elsewhere (Jensen T. S. and Yaksh T. L., Brain Res. 372:301-312 (1986) and Al-Rodhan N.R.F., Brain Res. 557:227-235 (1991)). The coordinates used for PAG cannulations are -5.6 mm posterior from bregma, 1.0 mm lateral from bregma, and 5.5 mm down from the dura. The guide cannula was pre-measured to be 5.5 mm (Plastics One, Roanoke, Va.) and the internal cannula was ordered to fit below the pedestal with a 2.0 mm projection. The guide cannula was then fixed to the skull using a stainless steel screw (⅛ inch) and cranioplastic cement. A stainless steel stilette was then placed in each guide to keep it patent and free of debris. Immediately after surgery, the animals were allowed to recover before returning them to an individual housing cage. All injections began 5-7 days after surgery.
# NTR1-PNA oligomers were injected, using a Hamilton digital syringe, into the PAG through the internal cannula, which extended 2 mm below the guide tip. The internal cannula was connected with a length of polyethylene tubing (PE-20) filled with saline solution. A small air bubble was introduced into the tubing to separate the saline from a solution containing 1.3 nmol of NTR1-PNA oligomers in artificial cerebral-spinal fluid (ACSF). The volume of the solution containing the NTR1-PNA oligomers was about 1.0 μl. The bubble was used to confirm the movement of this solution through the polyethylene tubing.
# NTR1-PNA oligomers were injected into the PAG of each rat three times, on days -4, -2, and 0. Controls included rats receiving no injections, rats receiving injections of ACSF only, and rats receiving PNA oligomers having sequence specificity for an unrelated polypeptide, the mu-1 morphine receptor (MU1R). The sequence of MU1R-PNA is 5′-[…]-3′ (SEQ ID NO: 2).
# The injection of NT in the PAG of rats produces a potent anti-nociceptive response as well as hypothermia. These responses are mediated by specific NT receptors and are not inhibited by naloxone. A very sensitive and reliable hot plate test was used to measure the anti-nociceptive effects of NT (Al-Rodhan N.R.F., Brain Res. 557:227-235 (1991)).
# as §2, with “controls. […]” for “controls.”
# [3] = system: plasma membrane serotonin transporter; test: Hyperactivity (activity chamber) after tranylcypromine challenge; format: in vivo, rat; details: 5 mg/kg i.p., then 15 mg/kg TCP 48 hours later
# Description: To test the ability of SERT-PNA oligomers to engender a biological response, e.g., a reduction of plasma membrane serotonin transporter expression, SERT-PNA oligomers were administered to rats with and without tranylcypromine (TCP), a MAO inhibitor.
# A solution containing 5 mg/kg of SERT-PNA oligomers in saline was injected directly into the peritoneal cavity of male Sprague-Dawley rats (200-250 g). Each rat received a single injection on day zero and the volume injected was about 200 μl. Controls included rats receiving injections of saline only and injections of TCP only.
# To monitor hyperactivity, an Opto-Varimex-Minor activity chamber (Columbus Instruments, Columbus, Ohio) was used. Briefly, this activity chamber records the number of times an animal disrupts an infrared beam while in a 42 cm by 42 cm chamber. Other signs of hyperactivity were noted by gross observation.
# NTR1 mRNA = test: Quantitative RT-PCR of NTR1 mRNA relative to GAPDH; format: in vivo; details: treated intracranially, 5 μg; at 8 hours
# Description: (§3) Messenger RNA (mRNA) levels for NTR1, MU1R, and GAPDH were measured in control and PNA-treated animals. Briefly, total RNA was isolated from approximately 20 mg of tissue using the S.N.A.P. total RNA Isolation Kit (Invitrogen, Carlsbad, Calif.). Quantitative RT-PCR was performed on treated and control animals using GAPDH as an internal standard and PCR fragments of the human NTR and of a GAPDH deletion mutant as exogenous standards. First strand cDNA was synthesized from approximately 500 ng of total RNA using the cDNA Cycle Kit (Invitrogen, Carlsbad, Calif.). PCR was performed on a GeneAmp PCR System 9600 (Perkin Elmer, Norwalk, Conn.) using end-labeled primer and TAq DNA Polymerase (Gibco-BRL, Gaithersburg, Md.). Products were separated on a 5% acrylamide gel containing 7 M urea, and detected using a Storm860 Phosphoimager (Molecular Dynamics, Sunnyvale, Calif.). Data were analyzed using ImageQuant Software (Molecular Dynamics, Sunnyvale Calif.). To control for any diurnal mRNA level fluctuations that may occur, the PNA injection time was controlled such that the tissue harvest time was identical in each animal group.
# MU1R mRNA = test: Quantitative RT-PCR of MU1R mRNA relative to GAPDH; format: in vivo; details: treated intracranially, 5 μg
# Description: as §3
# [4] = PNA injected into PAG on days -4, -2, 0, NT 18 nmol into PAG
# [5] = 10 mg/kg intraperitoneally, NT 18 nmol into PAG 24 hours later
substance,measurement,setting,value
"MU1R-PNA: 14-mer antisense PNA oligomer to mu-1 receptor 5′ non-coding region, 5′-CAGCCTCTTCCTCT-3′ (SEQ ID NO: 2) (all peptide nucleic acid (PNA); further chemistry not fully specified)",time until which MOR-mediated anti-nociception remained significantly reduced,"mu-1 receptor (MU1R); PNA injected into PAG on days -4, -2, 0",day twelve
same,responsiveness to MOR challenge (tail flick),mu-1 receptor (MU1R); one day after single i.p. injection of 3 mg/kg,unable to respond to MOR challenge
same,BT (hypothermia) response to NT challenge as percent of baseline response,[1]; [4],indistinguishable from the baseline responses
same,anti-nociception score (hot plate) after NT,[2]; [5],82 % MPE
same,MPE (hot plate) response to NT challenge as percent of baseline response,[2]; [4],indistinguishable from the baseline responses
"SERT-PNA: 12-mer antisense PNA oligomer to rat plasma membrane serotonin transporter, 5′-GCCAGATGTTGC-3′ (SEQ ID NO: 3) (all peptide nucleic acid (PNA); further chemistry not fully specified)",hyperactivity after TCP,[3],extreme hyperactivity
same,time to extreme hyperactivity after TCP treatment,[3],≤ 10 min
"mismatch-AS-NTR1-PNA: PNA oligomer like AS-NTR1-PNA with a mismatch at every third base pair, 5′-TATGGCACAGAC-3′ (SEQ ID NO:12) (all peptide nucleic acid (PNA); further chemistry not fully specified)",body temperature change in response to NT,[1]; 10 mg/kg intraperitoneally,−1.3 °C
same,anti-nociception score (hot plate) after NT,[2]; [5],60 % MPE
"sense-NTR1-PNA: sense PNA oligomer for NTR1, complementary to AS-NTR1-PNA, 5′-GTTTGAGCAATG-3′ (SEQ ID NO:13) (all peptide nucleic acid (PNA); sense control PNA, further chemistry not fully specified)",body temperature change in response to NT,[1]; 10 mg/kg intraperitoneally,−0.45±0.15 °C
same,body temperature change in response to NT,"[1]; PNA into PAG, 5 μg",−0.5 °C
same,reduction in the NTR1/GAPDH ratio of mRNA,NTR1 mRNA,50%
same,anti-nociception score (hot plate) after NT,[2]; [5],5.4±5.4 % MPE
same,anti-nociception score (hot plate) after NT,"[2]; PNA microinjected into PAG (printed 5% g), NT 18 nmol 24 hours later",14 % MPE
same,change in MU1R/GAPDH ratio of mRNA,MU1R mRNA,no change
